Measurements published in ChEMBL document CHEMBL1177794, “Broad spectrum alkynyl inhibitors of T315I Bcr-Abl” (Bioorg Med Chem Lett, 2010).

Tests used:
[1] = molecular target: STE20/SPS1-related proline-alanine-rich protein kinase (Homo sapiens) (UniProt Q9UEW8); experiment: Inhibition of STK39 at 10 uM
[2] = molecular target: Microtubule-associated serine/threonine-protein kinase 1 (Homo sapiens) (UniProt Q9Y2H9); experiment: Inhibition of MAST1 at 10 uM; details: values are per cent of control
[3] = molecular target: Tyrosine-protein kinase Fgr (Homo sapiens) (UniProt P09769); experiment: Inhibition of FGR at 10 uM; details: values are per cent of control
[4] = molecular target: Rho-associated protein kinase 2 (Homo sapiens) (UniProt O75116); experiment: Inhibition of ROCK2 at 10 uM
[5] = molecular target: Cyclin-dependent kinase 2 homolog (Plasmodium falciparum (isolate K1 / Thailand)) (UniProt Q07785); experiment: Inhibition of Plasmodium falciparum PFPK5 at 10 uM
[6] = molecular target: Tyrosine-protein kinase Fyn (Homo sapiens) (UniProt P06241); experiment: Inhibition of FYN at 10 uM; values are per cent of control
[7] = molecular target: Serine/threonine-protein kinase 3 (Homo sapiens) (UniProt Q13188); experiment: Inhibition of MST2 at 10 uM
[8] = system: Fibroblast growth factor receptor 3 (Homo sapiens), P22607 [G697C]; experiment: Inhibition of FGFR3 G697C mutant at 10 uM; details: values are per cent of control
[9] = molecular target: Proto-oncogene tyrosine-protein kinase Src (Homo sapiens) (UniProt P12931); experiment: Inhibition of SRC at 10 uM; values are per cent of control
[10] = molecular target: Mitogen-activated protein kinase 15 (Homo sapiens) (UniProt Q8TD08); experiment: Inhibition of ERK8 at 10 uM; details: values are per cent of control
[11] = molecular target: Insulin receptor-related protein (Homo sapiens) (UniProt P14616); experiment: Inhibition of INSRR at 10 uM; details: values are per cent of control
[12] = molecular target: Aurora kinase B (Homo sapiens) (UniProt Q96GD4); experiment: Inhibition of AURKB at 10 uM; details: values are per cent of control
[13] = molecular target: Cyclin-dependent kinase 9 (Homo sapiens) (UniProt P50750); experiment: Inhibition of CDK9 at 10 uM; values are per cent of control
[14] = molecular target: Serine/threonine-protein kinase ULK1 (Homo sapiens) (UniProt O75385); experiment: Inhibition of ULK1 at 10 uM; details: values are per cent of control
[15] = molecular target: Wee1-like protein kinase 2 (Homo sapiens) (UniProt P0C1S8); experiment: Inhibition of WEE2 at 10 uM; details: values are per cent of control
[16] = molecular target: Cyclin-dependent kinase 2 (Homo sapiens) (UniProt P24941); experiment: Inhibition of CDK2 at 10 uM; values are per cent of control
[17] = molecular target: Serine/threonine-protein kinase DCLK3 (Homo sapiens) (UniProt Q9C098); experiment: Inhibition of DCAMKL3 at 10 uM; details: values are per cent of control
[18] = molecular target: Non-receptor tyrosine-protein kinase TYK2 (Homo sapiens) (UniProt P29597); experiment: Inhibition of TYK2 JH2 pseudokinase domain at 10 uM; details: values are per cent of control
[19] = molecular target: Tyrosine-protein kinase Lck (Homo sapiens) (UniProt P06239); experiment: Inhibition of LCK at 10 uM; values are per cent of control
[20] = molecular target: Cyclin-dependent kinase 17 (Homo sapiens) (UniProt Q00537); experiment: Inhibition of PCTK2 at 10 uM; details: values are per cent of control
[21] = molecular target: Dual specificity tyrosine-phosphorylation-regulated kinase 2 (Homo sapiens) (UniProt Q92630); experiment: Inhibition of DYRK2 at 10 uM; details: values are per cent of control
[22] = molecular target: Leucine-rich repeat serine/threonine-protein kinase 2 (Homo sapiens) (UniProt Q5S007); experiment: Inhibition of LRRK2 at 10 uM; details: values are per cent of control
[23] = molecular target: Ribosomal protein S6 kinase alpha-2 (Homo sapiens) (UniProt Q15349); experiment: Inhibition of RSK3 N-terminal domain1 at 10 uM
[24] = molecular target: Mitogen-activated protein kinase kinase kinase 11 (Homo sapiens) (UniProt Q16584); experiment: Inhibition of MLK3 at 10 uM
[25] = molecular target: Testis-specific serine/threonine-protein kinase 1 (Homo sapiens) (UniProt Q9BXA7); experiment: Inhibition of TSSK1B at 10 uM; details: values are per cent of control
[26] = system: eIF-2-alpha kinase GCN2 (Homo sapiens), Q9P2K8 [S808G]; experiment: Inhibition of GCN2 Domain2 S808G mutant at 10 uM; details: values are per cent of control
[27] = molecular target: BMP-2-inducible protein kinase (Homo sapiens) (UniProt Q9NSY1); experiment: Inhibition of BIKE at 10 uM; details: values are per cent of control
[28] = molecular target: Misshapen-like kinase 1 (Homo sapiens) (UniProt Q8N4C8); experiment: Inhibition of MINK at 10 uM
[29] = molecular target: Vascular endothelial growth factor receptor 1 (Homo sapiens) (UniProt P17948); experiment: Inhibition of FLT1 at 10 uM; values are per cent of control
[30] = molecular target: Activin receptor type-2A (Homo sapiens) (UniProt P27037); experiment: Inhibition of ACVR2A at 10 uM; details: values are per cent of control
[31] = molecular target: Tyrosine-protein kinase TXK (Homo sapiens) (UniProt P42681); experiment: Inhibition of TXK at 10 uM; details: values are per cent of control
[32] = molecular target: Dual specificity protein kinase CLK1 (Homo sapiens) (UniProt P49759); experiment: Inhibition of CLK1 at 10 uM; details: values are per cent of control
[33] = molecular target: Serine/threonine-protein kinase tousled-like 1 (Homo sapiens) (UniProt Q9UKI8); experiment: Inhibition of TLK1 at 10 uM
[34] = molecular target: Ribosomal protein S6 kinase alpha-2 (Homo sapiens) (UniProt Q15349); experiment: Inhibition of RSK3 C-terminal domain2 at 10 uM
[35] = molecular target: Ribosomal protein S6 kinase alpha-5 (Homo sapiens) (UniProt O75582); experiment: Inhibition of RPS6KA5 N-terminal domain1 at 10 uM
[36] = molecular target: Receptor-interacting serine/threonine-protein kinase 4 (Homo sapiens) (UniProt P57078); experiment: Inhibition of RIPK4 at 10 uM
[37] = molecular target: Tyrosine-protein kinase receptor UFO (Homo sapiens) (UniProt P30530); experiment: Inhibition of AXL at 10 uM; details: values are per cent of control
[38] = molecular target: Inhibitor of nuclear factor kappa-B kinase subunit epsilon (Homo sapiens) (UniProt Q14164); experiment: Inhibition of IKK-epsilon at 10 uM; details: values are per cent of control
[39] = molecular target: Activin receptor type-1B (Homo sapiens) (UniProt P36896); experiment: Inhibition of ACVR1B at 10 uM; details: values are per cent of control
[40] = molecular target: Rhodopsin kinase GRK1 (Homo sapiens) (UniProt Q15835); experiment: Inhibition of GRK1 at 10 uM; details: values are per cent of control
[41] = molecular target: Ankyrin repeat and protein kinase domain-containing protein 1 (Homo sapiens) (UniProt Q8NFD2); experiment: Inhibition of ANKK1 at 10 uM; details: values are per cent of control
[42] = molecular target: SRSF protein kinase 1 (Homo sapiens) (UniProt Q96SB4); experiment: Inhibition of SRPK1 at 10 uM
[43] = molecular target: Serine/threonine-protein kinase LATS2 (Homo sapiens) (UniProt Q9NRM7); experiment: Inhibition of LATS2 at 10 uM; values are per cent of control
[44] = molecular target: Tyrosine-protein kinase Mer (Homo sapiens) (UniProt Q12866); experiment: Inhibition of MERTK at 10 uM; details: values are per cent of control

Chain of Ribosomal protein S6 kinase alpha-2 (Homo sapiens) (Q15349 whole entry, the tested form may be a part): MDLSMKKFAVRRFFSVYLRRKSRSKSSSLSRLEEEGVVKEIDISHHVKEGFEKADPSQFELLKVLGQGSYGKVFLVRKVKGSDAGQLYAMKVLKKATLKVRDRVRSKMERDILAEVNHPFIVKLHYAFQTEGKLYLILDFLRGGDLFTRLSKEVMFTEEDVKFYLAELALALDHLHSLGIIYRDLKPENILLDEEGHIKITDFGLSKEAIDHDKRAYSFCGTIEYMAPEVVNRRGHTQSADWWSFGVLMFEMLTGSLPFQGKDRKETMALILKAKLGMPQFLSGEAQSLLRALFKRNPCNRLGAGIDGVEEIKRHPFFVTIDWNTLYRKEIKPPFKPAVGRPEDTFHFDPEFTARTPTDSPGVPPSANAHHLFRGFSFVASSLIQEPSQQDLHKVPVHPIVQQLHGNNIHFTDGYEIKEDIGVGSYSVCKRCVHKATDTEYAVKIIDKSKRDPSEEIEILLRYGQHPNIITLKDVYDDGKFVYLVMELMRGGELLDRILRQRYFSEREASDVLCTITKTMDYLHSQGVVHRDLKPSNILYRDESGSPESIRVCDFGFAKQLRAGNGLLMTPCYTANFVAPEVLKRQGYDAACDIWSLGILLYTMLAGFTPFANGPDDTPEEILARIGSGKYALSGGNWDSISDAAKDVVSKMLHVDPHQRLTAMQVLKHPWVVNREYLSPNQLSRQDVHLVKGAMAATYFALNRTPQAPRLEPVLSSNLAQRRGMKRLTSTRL
Chain of BMP-2-inducible protein kinase (Homo sapiens) (Q9NSY1 whole entry, looked up): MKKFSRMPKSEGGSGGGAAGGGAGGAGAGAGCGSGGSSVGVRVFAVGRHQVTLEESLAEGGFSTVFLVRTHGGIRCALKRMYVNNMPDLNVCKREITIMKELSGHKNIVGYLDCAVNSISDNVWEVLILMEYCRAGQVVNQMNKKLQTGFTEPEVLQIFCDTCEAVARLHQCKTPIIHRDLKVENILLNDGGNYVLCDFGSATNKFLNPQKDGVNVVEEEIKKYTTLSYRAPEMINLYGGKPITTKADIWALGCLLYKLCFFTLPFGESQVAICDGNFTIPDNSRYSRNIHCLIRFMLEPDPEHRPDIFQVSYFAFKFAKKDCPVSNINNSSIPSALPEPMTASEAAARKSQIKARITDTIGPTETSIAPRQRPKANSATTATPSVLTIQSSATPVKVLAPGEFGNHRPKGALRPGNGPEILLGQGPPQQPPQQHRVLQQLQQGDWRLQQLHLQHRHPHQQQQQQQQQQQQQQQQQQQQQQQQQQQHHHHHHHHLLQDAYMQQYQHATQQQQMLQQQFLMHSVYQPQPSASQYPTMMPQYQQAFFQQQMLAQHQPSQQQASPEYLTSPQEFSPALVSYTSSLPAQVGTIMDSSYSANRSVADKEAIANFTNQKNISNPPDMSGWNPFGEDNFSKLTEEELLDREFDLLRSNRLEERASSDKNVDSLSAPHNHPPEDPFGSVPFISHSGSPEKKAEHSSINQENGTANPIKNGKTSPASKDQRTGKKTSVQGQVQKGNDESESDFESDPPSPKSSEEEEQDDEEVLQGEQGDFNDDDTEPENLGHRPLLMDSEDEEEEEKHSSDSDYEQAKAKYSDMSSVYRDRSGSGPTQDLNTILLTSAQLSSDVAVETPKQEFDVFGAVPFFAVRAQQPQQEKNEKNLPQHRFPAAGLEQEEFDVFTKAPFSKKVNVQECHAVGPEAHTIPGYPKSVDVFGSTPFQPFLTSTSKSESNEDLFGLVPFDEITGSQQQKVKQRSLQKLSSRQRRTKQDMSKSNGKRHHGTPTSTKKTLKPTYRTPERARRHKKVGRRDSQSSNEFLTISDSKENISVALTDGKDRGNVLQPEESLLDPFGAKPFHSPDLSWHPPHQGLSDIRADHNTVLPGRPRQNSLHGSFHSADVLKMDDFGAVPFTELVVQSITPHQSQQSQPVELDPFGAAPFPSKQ
Chain of eIF-2-alpha kinase GCN2 (Homo sapiens), Q9P2K8 [S808G] (Q9P2K8 whole entry S808G, the tested form may be a part): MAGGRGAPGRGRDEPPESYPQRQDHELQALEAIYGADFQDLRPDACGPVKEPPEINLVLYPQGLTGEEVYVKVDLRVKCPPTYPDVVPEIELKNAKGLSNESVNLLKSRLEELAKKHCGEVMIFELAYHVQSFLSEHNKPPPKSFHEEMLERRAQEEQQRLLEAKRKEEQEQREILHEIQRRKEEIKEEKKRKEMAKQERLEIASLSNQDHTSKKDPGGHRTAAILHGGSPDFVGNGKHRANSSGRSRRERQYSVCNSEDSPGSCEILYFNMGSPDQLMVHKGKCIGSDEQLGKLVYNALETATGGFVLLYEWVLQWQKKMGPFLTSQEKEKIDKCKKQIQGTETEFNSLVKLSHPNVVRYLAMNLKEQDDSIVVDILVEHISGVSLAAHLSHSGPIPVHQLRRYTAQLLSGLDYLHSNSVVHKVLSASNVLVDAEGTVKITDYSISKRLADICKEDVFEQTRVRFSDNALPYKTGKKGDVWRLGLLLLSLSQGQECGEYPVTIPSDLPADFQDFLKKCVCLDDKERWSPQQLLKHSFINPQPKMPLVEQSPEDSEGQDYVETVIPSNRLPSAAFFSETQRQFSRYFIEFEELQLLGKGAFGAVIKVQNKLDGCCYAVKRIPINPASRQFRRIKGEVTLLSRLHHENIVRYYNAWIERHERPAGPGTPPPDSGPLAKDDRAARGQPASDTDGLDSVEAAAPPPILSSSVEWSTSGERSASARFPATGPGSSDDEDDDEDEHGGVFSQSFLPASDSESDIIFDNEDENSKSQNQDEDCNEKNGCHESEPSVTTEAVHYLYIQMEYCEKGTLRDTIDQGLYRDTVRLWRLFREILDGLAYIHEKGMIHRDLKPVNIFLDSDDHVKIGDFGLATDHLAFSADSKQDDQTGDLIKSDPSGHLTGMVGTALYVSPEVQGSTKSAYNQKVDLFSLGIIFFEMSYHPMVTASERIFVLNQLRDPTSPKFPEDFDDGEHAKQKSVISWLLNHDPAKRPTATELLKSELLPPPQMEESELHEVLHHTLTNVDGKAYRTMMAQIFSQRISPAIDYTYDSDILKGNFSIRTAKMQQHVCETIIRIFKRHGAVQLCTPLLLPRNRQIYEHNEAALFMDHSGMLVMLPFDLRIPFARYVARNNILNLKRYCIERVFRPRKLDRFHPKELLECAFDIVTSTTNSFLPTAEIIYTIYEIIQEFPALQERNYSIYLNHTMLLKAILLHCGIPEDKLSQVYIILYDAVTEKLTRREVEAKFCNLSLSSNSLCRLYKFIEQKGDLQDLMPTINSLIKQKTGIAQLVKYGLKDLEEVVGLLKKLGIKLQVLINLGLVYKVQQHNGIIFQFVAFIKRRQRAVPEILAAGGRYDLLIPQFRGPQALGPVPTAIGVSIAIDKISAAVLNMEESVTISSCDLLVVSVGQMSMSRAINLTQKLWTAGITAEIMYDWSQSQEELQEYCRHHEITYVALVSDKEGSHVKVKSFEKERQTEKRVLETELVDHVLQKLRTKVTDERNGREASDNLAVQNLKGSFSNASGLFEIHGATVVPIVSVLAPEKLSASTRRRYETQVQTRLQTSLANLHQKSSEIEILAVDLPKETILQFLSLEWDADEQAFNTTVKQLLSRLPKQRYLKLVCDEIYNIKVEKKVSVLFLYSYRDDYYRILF
Chain of Fibroblast growth factor receptor 3 (Homo sapiens), P22607 [G697C] (P22607 whole entry G697C): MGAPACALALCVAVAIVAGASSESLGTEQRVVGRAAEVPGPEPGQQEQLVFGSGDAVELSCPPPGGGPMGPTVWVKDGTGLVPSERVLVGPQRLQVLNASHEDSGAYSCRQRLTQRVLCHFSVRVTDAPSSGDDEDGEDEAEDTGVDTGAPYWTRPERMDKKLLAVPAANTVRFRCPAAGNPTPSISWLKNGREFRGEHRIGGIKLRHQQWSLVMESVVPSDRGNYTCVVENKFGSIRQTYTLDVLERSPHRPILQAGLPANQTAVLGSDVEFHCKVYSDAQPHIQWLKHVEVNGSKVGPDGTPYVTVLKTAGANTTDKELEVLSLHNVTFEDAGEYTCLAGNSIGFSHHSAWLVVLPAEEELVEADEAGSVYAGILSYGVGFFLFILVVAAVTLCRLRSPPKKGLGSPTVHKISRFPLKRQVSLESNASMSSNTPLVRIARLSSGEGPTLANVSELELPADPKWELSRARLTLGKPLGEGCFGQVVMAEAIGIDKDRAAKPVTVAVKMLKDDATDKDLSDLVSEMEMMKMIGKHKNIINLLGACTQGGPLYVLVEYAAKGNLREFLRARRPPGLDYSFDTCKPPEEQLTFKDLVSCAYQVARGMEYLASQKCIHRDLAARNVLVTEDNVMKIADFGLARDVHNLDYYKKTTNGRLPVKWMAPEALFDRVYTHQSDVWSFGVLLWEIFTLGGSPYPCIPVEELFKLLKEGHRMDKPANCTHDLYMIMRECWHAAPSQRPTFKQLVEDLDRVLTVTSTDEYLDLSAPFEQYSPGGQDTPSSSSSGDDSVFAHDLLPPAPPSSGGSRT
Chain of Serine/threonine-protein kinase DCLK3 (Homo sapiens) (Q9C098 whole entry, the tested form may be a part): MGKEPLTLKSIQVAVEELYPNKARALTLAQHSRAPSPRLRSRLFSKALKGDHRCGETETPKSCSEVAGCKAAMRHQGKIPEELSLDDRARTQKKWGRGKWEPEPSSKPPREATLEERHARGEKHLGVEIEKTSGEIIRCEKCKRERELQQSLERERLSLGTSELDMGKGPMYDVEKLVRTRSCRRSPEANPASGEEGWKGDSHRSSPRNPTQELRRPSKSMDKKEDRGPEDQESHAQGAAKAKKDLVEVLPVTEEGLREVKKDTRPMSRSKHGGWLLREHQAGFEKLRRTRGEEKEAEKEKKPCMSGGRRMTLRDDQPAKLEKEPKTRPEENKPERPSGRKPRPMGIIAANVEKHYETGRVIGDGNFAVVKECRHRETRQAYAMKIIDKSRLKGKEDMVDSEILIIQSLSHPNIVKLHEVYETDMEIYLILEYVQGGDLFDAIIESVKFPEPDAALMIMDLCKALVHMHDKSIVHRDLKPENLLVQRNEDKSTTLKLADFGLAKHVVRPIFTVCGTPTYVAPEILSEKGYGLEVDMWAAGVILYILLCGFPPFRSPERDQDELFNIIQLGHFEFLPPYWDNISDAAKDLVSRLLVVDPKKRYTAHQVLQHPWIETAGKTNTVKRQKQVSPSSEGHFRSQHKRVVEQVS

What does the source list for `CCN1CCN(Cc2ccc(NC(=O)c3ccc(C)c(C#Cc4cnc5[nH]ccc5c4)c3)cc2C(F)(F)F)CC1`?
inhibition [1]: 100%; residual binding, % of control [2]: 100%; residual binding, % of control [3]: 0.15%; inhibition [4]: 18%; inhibition [5]: 93%; level, % of control [6]: 0.25%; inhibition [7]: 26%; residual binding, % of control [8]: 0.15%; % of control [9]: 0.05%; residual binding, % of control [10]: 2.6%; residual binding, % of control [11]: 68%; residual binding, % of control [12]: 4.6%; level, % of control [13]: 31%; residual binding, % of control [14]: 38%; residual binding, % of control [15]: 20%; level, % of control [16]: 13%; residual binding, % of control [17]: 100%; residual binding, % of control [18]: 96%; level, % of control [19]: 0.1%; residual binding, % of control [20]: 3.7%; residual binding, % of control [21]: 51%; residual binding, % of control [22]: 6.2%; inhibition [23]: 0.7%; inhibition [24]: 3%; residual binding, % of control [25]: 98%; residual binding, % of control [26]: 0.25%; residual binding, % of control [27]: 30%; inhibition [28]: 5.4%; level, % of control [29]: 0.8%; residual binding, % of control [30]: 100%; residual binding, % of control [31]: 0.25%; residual binding, % of control [32]: 6.8%; inhibition [33]: 93%; inhibition [34]: 87%; inhibition [35]: 20%; inhibition [36]: 8%; residual binding, % of control [37]: 0.1%; residual binding, % of control [38]: 92%; residual binding, % of control [39]: 63%; residual binding, % of control [40]: 88%; residual binding, % of control [41]: 7.1%; inhibition [42]: 100%; level, % of control [43]: 7%; residual binding, % of control [44]: 0.5%
